The assay concerns the target T1, human PD-1 / PD-L1-Ig binding on Jurkat cell line over-expressing human PD-1 (Jurkat-PD-1) (Homo sapiens, UniProt Q15116).
T1 construct: expressed in transfected cells; host or cells: Jurkat
Description: Jurkat-PD-1 Cell Binding High-Content Screening Assay (CBA). Type of assay: cell-based. As to conditions: Jurkat-PD-1 cells, PE-labeled PD-L1-Ig 20 nM final; read-out: Jurkat HPD1_PDL1 IC50. In a few lines: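 PE-PD-L1-Ig 20 nM final; cells in DMEM/10% FCS; cpd pre-incubation 2 h, 37° C; ligand 1 h; PFA fix + Hoechst 33342; high-content imaging read-out.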

Structures are written as SMILES. Where a SMILES comes first, the peptide text is derived from it. Bridges are numbered along the chain shown (N, C = ends). [ ]: non-standard residue; d: D form. The star is where a group is joined. Phe(4-COOH) = N[C@@H](Cc1ccc(C(=O)O)cc1)C(=O)O; Bip = N[C@@H](Cc1ccc(-c2ccccc2)cc1)C(=O)O; Phe(3-Me) = Cc1cccc(C[C@H](N)C(=O)O)c1; Val(3-OH) = CC(C)(O)[C@H](N)C(=O)O; Cha = N[C@@H](CC1CCCCC1)C(=O)O; Cit = NC(=O)NCCC[C@H](N)C(=O)O; dCha = N[C@H](CC1CCCCC1)C(=O)O; Carboxymethyl = O=C(O)C*; Nle = CCCC[C@H](N)C(=O)O; Orn = NCCC[C@H](N)C(=O)O; Dab = NCC[C@H](N)C(=O)O; Dap = NC[C@H](N)C(=O)O; Propargyl = C#CC*

T1 sequence (Q15116 25-288): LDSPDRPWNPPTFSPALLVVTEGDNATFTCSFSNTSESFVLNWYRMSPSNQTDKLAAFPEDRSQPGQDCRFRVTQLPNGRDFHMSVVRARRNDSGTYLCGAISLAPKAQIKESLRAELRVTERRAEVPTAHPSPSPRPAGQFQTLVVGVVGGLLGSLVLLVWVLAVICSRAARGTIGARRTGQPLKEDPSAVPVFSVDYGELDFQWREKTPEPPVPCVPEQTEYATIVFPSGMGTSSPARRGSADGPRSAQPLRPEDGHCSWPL

For the compound `CCCC[C@@H]1NC(=O)[C@H](CCN)NC(=O)[C@@H](CC(C)C)NC(=O)[C@H](CCCN)NC(=O)[C@H](C(C)C)NC(=O)[C@H](Cc2ccc(-c3ccccc3)cc2)NC(=O)[C@H](CC(C)C)NC(=O)[C@H](Cc2c[nH]c3ccccc23)NC(=O)[C@H](CC(=O)O)NC(=O)[C@H](Cc2ccc(C(=O)O)cc2)NC(=O)[C@H](Cc2ccc(OCC(=O)O)cc2)NC(=O)CSC[C@@H](C(=O)NCC(N)=O)NC(=O)[C@H](CO)NC(=O)[C@H](C(C)C)NC1=O` [Compound 1410] ({CH2CO}-Y(Carboxymethyl)[Phe(4-COOH)]DWL[Bip]V[Orn][dL][Dab][Nle]VSCG-NH2; thioether N-14), the IC50 – broadly, the concentration at which inhibition is half-maximal – was 7.3 nM.

In the case of `CC[C@H](C)[C@@H]1NC(=O)[C@H](Cc2ccc(-c3ccccc3)cc2)NC(=O)[C@H](C(C)C)NC(=O)[C@H](Cc2c[nH]c3ccccc23)NC(=O)[C@H](CC(=O)O)NC(=O)[C@H](Cc2ccc(OCC(=O)O)cc2)NC(=O)[C@H](Cc2ccc(OCC(=O)O)cc2)NC(=O)CSC[C@@H](C(=O)N[C@@H](C)C(N)=O)NC(=O)[C@H]([C@@H](C)O)NC(=O)[C@H](C(C)C)NC(=O)[C@H](Cc2ccccc2)NC(=O)[C@H](CCN)NC(=O)[C@@H](CC(C)C)NC(=O)[C@H](CCCN)NC1=O` [Compound 1660] ({CH2CO}-Y(Carboxymethyl)Y(Carboxymethyl)DWV[Bip]I[Orn][dL][Dab]FVTCA-NH2; thioether N-14), the IC50 amounted to 20.6 nM.

Turning to `C#CCOc1ccc(C[C@@H]2NC(=O)[C@H](Cc3ccc(-c4ccccc4)cc3)NC(=O)[C@H](Cc3ccc(C(=O)O)cc3)NC(=O)[C@H](Cc3cccc(C)c3)NC(=O)[C@H](CC(=O)O)NC(=O)[C@H](Cc3ccc(C(=O)O)cc3)NC(=O)[C@H]([C@@H](C)O)NC(=O)CSC[C@@H](C(=O)N[C@@H](CCN)C(N)=O)NC(=O)[C@H](CCC(=O)O)NC(=O)[C@H](C(C)C)NC(=O)[C@H](CC3CCCCC3)NC(=O)[C@H](CCN)NC(=O)[C@@H](CC(C)C)NC(=O)[C@H](CCCN)NC2=O)cc1` [Compound 1828] ({CH2CO}-T[Phe(4-COOH)]D[Phe(3-Me)][Phe(4-COOH)][Bip]Y(Propargyl)[Orn][dL][Dab][Cha]VEC[Dab]-NH2; thioether N-14), the IC50 was 6.9 nM.

`CC(C)[C@@H]1NC(=O)[C@H](Cc2c[nH]c3ccccc23)NC(=O)[C@H](CC(=O)O)NC(=O)[C@H](Cc2ccc(O)cc2)NC(=O)[C@H](CC(N)=O)NC(=O)CSC[C@@H](C(=O)N[C@@H](C)C(N)=O)NC(=O)[C@H]([C@@H](C)O)NC(=O)[C@H](C(C)C)NC(=O)[C@H](CC2CCCCC2)NC(=O)[C@H](CCN)NC(=O)[C@@H](CC2CCCCC2)NC(=O)[C@H](CCCN)NC(=O)[C@H](C(C)C)NC(=O)[C@H](Cc2ccc(-c3ccccc3)cc2)NC1=O` [Compound 1639] ({CH2CO}-NYDWV[Bip]V[Orn][dCha][Dab][Cha]VTCA-NH2; thioether N-14): the IC50 amounted to 35.8 nM.

Consider `CCNC(=O)[C@H](CCN)NC(=O)[C@@H]1CSCC(=O)N[C@@H](CN)C(=O)N[C@@H](Cc2ccc(OCC(=O)O)cc2)C(=O)N[C@@H](CC(=O)O)C(=O)N[C@@H](Cc2cccc(C)c2)C(=O)N[C@@H](C(C)C)C(=O)N[C@@H](Cc2ccc(-c3ccccc3)cc2)C(=O)N[C@@H](CCCNC(N)=O)C(=O)N[C@@H](CCCN)C(=O)N[C@H](CC(C)C)C(=O)N[C@@H](CCN)C(=O)N[C@@H](CC2CCCCC2)C(=O)N[C@@H](C(C)C)C(=O)N[C@@H]([C@@H](C)O)C(=O)N1` [Compound 2009] ({CH2CO}-[Dap]Y(Carboxymethyl)D[Phe(3-Me)]V[Bip][Cit][Orn][dL][Dab][Cha]VTC[Dab]-NHEt; thioether N-14), for which the half-inhibitory concentration (IC50) was determined as 5.8 nM.

`Cc1cccc(C[C@@H]2NC(=O)[C@H](CC(=O)O)NC(=O)[C@H](Cc3ccc(OCC(=O)O)cc3)NC(=O)[C@H](CN)NC(=O)CSC[C@@H](C(=O)N[C@@H](C)C(N)=O)NC(=O)[C@H](Cc3cnc[nH]3)NC(=O)[C@H](C(C)C)NC(=O)[C@H](CC3CCCCC3)NC(=O)[C@H](CCN)NC(=O)[C@@H](CC(C)C)NC(=O)[C@H](CCCN)NC(=O)[C@H](C(C)C)NC(=O)[C@H](Cc3ccc(-c4ccccc4)cc3)NC(=O)[C@H](C(C)C)NC2=O)c1` [Compound 1757] ({CH2CO}-[Dap]Y(Carboxymethyl)D[Phe(3-Me)]V[Bip]V[Orn][dL][Dab][Cha]VHCA-NH2; thioether N-14): the IC50 stood at 13.2 nM.

As for `CC[C@H](C)[C@@H]1NC(=O)[C@H](Cc2ccc(-c3ccccc3)cc2)NC(=O)[C@H](C(C)C)NC(=O)[C@H](Cc2c[nH]c3ccccc23)NC(=O)[C@H](CC(=O)O)NC(=O)[C@H](Cc2ccc(O)cc2)NC(=O)[C@H](Cc2ccc(OCC(=O)O)cc2)NC(=O)CSC[C@@H](C(=O)N[C@@H](C)C(N)=O)NC(=O)[C@H]([C@@H](C)O)NC(=O)[C@H](C(C)C)NC(=O)[C@H](CC2CCCCC2)NC(=O)[C@H](CCN)NC(=O)[C@@H](CC(C)C)NC(=O)[C@H](CCCN)NC1=O` [Compound 1167], the IC50 was determined as 17 nM.

In the case of `Cc1cccc(C[C@@H]2NC(=O)[C@H](CC(=O)O)NC(=O)[C@H](Cc3ccc(C(=O)O)cc3)NC(=O)[C@H](CCN)NC(=O)CSC[C@@H](C(=O)N[C@@H](CCN)C(N)=O)NC(=O)[C@H](CO)NC(=O)[C@H](C(C)(C)O)NC(=O)[C@H](CC3CCCCC3)NC(=O)[C@H](CCN)NC(=O)[C@@H](CC(C)C)NC(=O)[C@H](CCCN)NC(=O)[C@H](Cc3ccc(C(=O)O)cc3)NC(=O)[C@H](Cc3ccc(-c4ccccc4)cc3)NC(=O)[C@H](Cc3ccc(C(=O)O)cc3)NC2=O)c1` [Example 2709] ({CH2CO}-[Dab][Phe(4-COOH)]D[Phe(3-Me)][Phe(4-COOH)][Bip][Phe(4-COOH)][Orn][dL][Dab][Cha][Val(3-OH)]SC[Dab]-NH2; thioether N-14), the IC50 came out at 2.3 nM.

As for `Cc1ccc(C[C@@H]2NC(=O)[C@H](CC(=O)O)NC(=O)[C@H](Cc3ccc(OCC(=O)O)cc3)NC(=O)[C@H](CN)NC(=O)CSC[C@@H](C(=O)N[C@@H](C)C(N)=O)NC(=O)[C@H]([C@@H](C)O)NC(=O)[C@H](C(C)C)NC(=O)[C@H](CC3CCCCC3)NC(=O)[C@H](CCN)NC(=O)[C@@H](CC(C)C)NC(=O)[C@H](CCCN)NC(=O)[C@H](CCC(=O)O)NC(=O)[C@H](Cc3ccc(-c4ccccc4)cc3)NC(=O)[C@H](C(C)C)NC2=O)cc1` [Compound 2139], the IC50 is 71.6 nM.

On to `CC[C@H](C)[C@@H]1NC(=O)[C@H](Cc2ccc(-c3ccccc3)cc2)NC(=O)[C@H](C(C)C)NC(=O)[C@H](Cc2c[nH]c3ccccc23)NC(=O)[C@H](CC(=O)O)NC(=O)[C@H](Cc2ccc(OCC(=O)O)cc2)NC(=O)[C@H](CN)NC(=O)CSC[C@@H](C(=O)N[C@@H](C)C(N)=O)NC(=O)[C@H]([C@@H](C)O)NC(=O)[C@H](C(C)C)NC(=O)[C@H](Cc2ccccc2)NC(=O)[C@H](CCN)NC(=O)[C@@H](CC(C)C)NC(=O)[C@H](CCCN)NC1=O` [Compound 1658] ({CH2CO}-[Dap]Y(Carboxymethyl)DWV[Bip]I[Orn][dL][Dab]FVTCA-NH2; thioether N-14), for which the IC50 worked out at 19.5 nM.

For the compound `CC(C)C[C@@H]1NC(=O)[C@H](CCCNC(=N)N)NC(=O)[C@@H](CC(C)C)NC(=O)[C@H](CCN)NC(=O)[C@H](CCCNC(=N)N)NC(=O)[C@H](Cc2ccc(-c3ccccc3)cc2)NC(=O)[C@H](C(C)C)NC(=O)[C@H](Cc2c[nH]c3ccccc23)NC(=O)[C@H](CC(=O)O)NC(=O)[C@H](Cc2ccc(O)cc2)NC(=O)[C@H](CC(N)=O)NC(=O)CSC[C@@H](C(=O)N[C@@H](C)C(N)=O)NC(=O)[C@H]([C@@H](C)O)NC(=O)[C@H](C(C)C)NC1=O` [Compound 1011] ({CH2CO}-NYDWV[Bip]R[Dab][dL]RLVTCA-NH2; thioether N-14), the IC50 was found to be 67.1 nM.

Source of the values: patent US20250163104A1, “MACROCYCLIC IMMUNOMODULATORS” (priority 2021, published 2025).
